{
  "source": "ChEMBL document CHEMBL4043296",
  "about": "(J Med Chem, 2018)",
  "key": {"[1]": {"molecular_target": "T1, Muscarinic acetylcholine receptor M1 (Homo sapiens, UniProt P11229)", "T1 sequence (P11229 whole entry)": "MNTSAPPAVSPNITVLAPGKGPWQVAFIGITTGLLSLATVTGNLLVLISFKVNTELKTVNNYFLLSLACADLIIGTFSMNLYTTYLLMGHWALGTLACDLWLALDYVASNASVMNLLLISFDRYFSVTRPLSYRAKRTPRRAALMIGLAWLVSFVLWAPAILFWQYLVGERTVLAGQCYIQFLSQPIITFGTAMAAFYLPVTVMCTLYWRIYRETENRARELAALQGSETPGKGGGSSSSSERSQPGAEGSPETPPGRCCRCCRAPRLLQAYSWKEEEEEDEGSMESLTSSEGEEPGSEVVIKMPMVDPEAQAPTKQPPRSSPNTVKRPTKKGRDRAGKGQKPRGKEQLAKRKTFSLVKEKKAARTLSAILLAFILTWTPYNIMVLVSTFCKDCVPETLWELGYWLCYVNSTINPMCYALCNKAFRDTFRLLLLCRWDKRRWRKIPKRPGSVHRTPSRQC", "experiment": "(§1) Antagonist activity at human SP/Myc epitope-tagged muscarinic M1 receptor expressed in HEK293T cells assessed as inhibition of carbachol-induced RLuc8-fused Galphaq activation preincubated for 15 mins followed by carbachol induction measured after 2 mins by BRET assay", "format": "cell-based, HEK-293T"}, "[2]": {"molecular_target": "T2, Muscarinic acetylcholine receptor M1 (Homo sapiens) (UniProt P11229)", "T2 sequence (whole entry)": "T1 sequence (P11229 whole entry)", "experiment": "as §1", "format": "cell-based", "settings": "HEK-293T"}, "[3]": {"experiment": "Half life in CD1 mouse plasma at 3 mg/kg, sc by UPLC-MS analysis", "format": "ADME, organism-based"}, "[4]": {"experiment": "Cmax in CD1 mouse plasma at 3 mg/kg, sc after 0.25 hrs by UPLC-MS analysis", "format": "ADME, organism-based", "set-up": "dose 3 mg/kg, route subcutaneous"}, "Brain": {"test_system": "Brain", "experiment": "fAUClast in CD1 mouse brain at 3 mg/kg, sc by UPLC-MS analysis", "format": "ADME, organism-based", "settings": "in vivo"}, "D(4) dopamine receptor": {"molecular_target": "T3, D(4) dopamine receptor (Homo sapiens, UniProt P21917)", "T3 sequence (P21917 whole entry)": "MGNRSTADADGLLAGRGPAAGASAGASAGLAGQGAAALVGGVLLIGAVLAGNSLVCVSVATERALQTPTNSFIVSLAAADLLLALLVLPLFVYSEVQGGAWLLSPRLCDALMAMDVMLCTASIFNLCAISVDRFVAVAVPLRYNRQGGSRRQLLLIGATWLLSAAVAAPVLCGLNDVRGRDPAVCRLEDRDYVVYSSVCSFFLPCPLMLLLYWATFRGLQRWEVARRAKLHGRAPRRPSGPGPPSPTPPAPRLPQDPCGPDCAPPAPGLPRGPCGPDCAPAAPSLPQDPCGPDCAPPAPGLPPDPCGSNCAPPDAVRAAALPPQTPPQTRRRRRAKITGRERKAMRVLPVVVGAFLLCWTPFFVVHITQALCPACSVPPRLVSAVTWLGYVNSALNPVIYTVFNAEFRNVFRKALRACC", "experiment": "Agonist activity at human SP/Myc epitope-tagged dopamine D4 receptor expressed in HEK293T cells assessed as RLuc8-fused Galphai1 activation after 2 mins by BRET assay", "format": "cell-based, HEK-293T"}, "[5]": {"experiment": "Ratio of AUC in CD1 mouse brain to AUC in CD1 mouse plasma at 3 mg/kg, sc", "format": "ADME, organism-based", "settings": "read-out: Ratio AUC"}},
  "data": [
    {"smiles": "O=C1CCc2ccccc2N1CCCN1CCC(Cc2ccccc2)CC1", "values": [
      {"measurement": "IC50", "setting": "[1]", "result": 2.63, "unit": "µM"},
      {"measurement": "Imax", "setting": "[2]", "result": 44, "unit": "%"}
    ]},
    {"smiles": "O=C1CCc2ccccc2N1CCCN1CCN(c2ccccc2)CC1", "values": [
      {"measurement": "half-life", "setting": "[3]", "result": 46.2, "unit": "min"},
      {"measurement": "Cmax", "setting": "[4]", "result": 481, "unit": "ng/mL"},
      {"measurement": "fAUClast", "setting": "Brain", "result": 204, "unit": "ng·h/mL"},
      {"measurement": "EC50", "setting": "D(4) dopamine receptor", "result": 0.000158, "unit": "µM"},
      {"measurement": "Kp", "setting": "[5]", "result": 4.35}
    ]}
  ]
}
